Data set [1] in a line: Cyclic voltammetry, cathodic reduction potential in aqueous solution. It is filed as physicochemical. Particulars: values normalized vs. SCE; phosphate buffer pH 7.4, 5 mM NaCl, 5·10^−4 M complex, scan rate 0.020 V s^−1. As for the experimental part: The electrochemical characterization of compounds 1–6, performed by using cyclic voltammetry (CV), was carried out with the aim of determining the cathodic reduction potentials in aqueous solution (Ep^c).
Cyclic voltammetry (CV) measurements were carried out with a potentiostat CHI 1230B (CH Instruments, Inc., Austin, TX, USA) in a standard three-electrode electrochemical cell. The working electrode was a glassy carbon (GC) electrode, the reference electrode was a KCl-saturated Ag/AgCl and the counter was a Pt sheet. The GC electrode was carefully polished with alumina powder, then rinsed with distilled water and dried, to obtain a reproducible surface for all the experiments. All the measurements, conducted in triplicate, were carried out in buffered aqueous solutions containing the Pt(IV) compound at a concentration of 5·10^−4 M in 10 mL phosphate buffer (PB, pH = 7.4, I = 0.1) and 5 mM NaCl as supporting electrolyte. A blank solution (without Pt(IV) complex) was also tested. All the peak potentials were measured with a scan rate of 0.020 V s^−1; the initial potential was chosen equal to the open-circuit potential and the scan direction was negative. All the CV plots were acquired after an equilibration time of 2 min in order to make the GC surface reproducible.

Data set [2] deals with 2008 human ovarian cancer cells. The data set is described as follows: MTT cytotoxicity test, 72 h. It is filed as cell-based. Conditions: 2008, MTT. How it is done: (§1) The in vitro cytotoxic activities of compounds 1–6 were assayed on a panel of human cancer cell lines containing examples of pancreatic (PSN-1), colon (HCT-15 and LoVo), cervical (A431), and ovarian (2008) cancers. Cisplatin and oxaliplatin were used as reference compounds and were tested under the same experimental conditions.
(§2) Human colon (HCT-15 and LoVo) and pancreatic (PSN-1) carcinoma cell lines were obtained from the American Type Culture Collection (ATCC, RocKville, MD). The 2008 human ovarian cancer cells were kindly provided by Prof. G. Marverti (Dept. of Biomedical Science of Modena University, Italy). Human cervical carcinoma (A431) cells were kindly provided by Prof. F. Zunino (Division of Experimental Oncology B, Istituto Nazionale dei Tumori, Milan, Italy). […] Cell lines were maintained in the logarithmic phase at 37 °C in a 5% carbon dioxide atmosphere using RPMI-1640 or F-12 culture medium (Euroclone) containing 10% fetal calf serum (Euroclone, Milan, Italy), antibiotics (50 units per mL penicillin and 50 μg mL^−1 streptomycin), and 2 mM L-glutamine.
(§3) The growth inhibitory effect toward the tumor cell lines was evaluated by the MTT test. Briefly, 3-8·10^3 cells/well, depending upon the growth characteristics of the cell lines, were seeded in 96-well microplates in growth medium (100 µL) and then incubated at 37 °C in a 5% carbon dioxide atmosphere. After 24 h, the medium was removed and replaced with a fresh one containing the compound to be tested at the appropriate concentration. Triplicate cultures were established for each treatment. After 72 h, each well was treated with 10 µL of a 5 mg·mL^−1 MTT (3-(4,5-dimethylthiazol-2-yl)-2,5-diphenyltetrazolium bromide) saline solution and, after 5 h of incubation, 100 µL of a sodium dodecylsulfate (SDS) solution in HCl 0.01 M were added. Following an overnight incubation, the inhibition of cell growth induced by the tested complexes was evaluated by measuring the absorbance of each well at 570 nm using a Bio-Rad 680 microplate reader (Bio-Rad Laboratories S.r.l., Segrate (MI), Italy).

Data set [3] relates to A431 human cervical carcinoma cells. The data set is described as follows: MTT cytotoxicity test, 72 h. It is filed as cell-based. How it is done:
as §1, §2, §3

Data set [4] relates to HCT-15 human colon carcinoma cells. The data set is described as follows: MTT cytotoxicity test, 72 h. It is filed as cell-based. Particulars: HCT-15, MTT. How it is done: as §1, §2, §3
Data set [5] relates to LoVo human colon carcinoma cells. The data set is described as follows: MTT cytotoxicity test, 72 h. It is filed as cell-based. How it is done: as §1, §2, §3
Data set [6] has as its system PSN-1 human pancreatic carcinoma cells. The data set is described as follows: MTT cytotoxicity test, 72 h. It is filed as cell-based. Conditions: PSN-1, MTT. How it is done:
as §1, §2, §3

For data set [7], the system named is human A431 cancer cell spheroids. Put plainly: Cytotoxicity towards 3D spheroids, acid phosphatase (APH) assay. It is filed as cell-based. Particulars: A431 3D spheroids, 72 h; for IC50: APH assay. An excerpt:
The remarkable cell-killing effect observed against human A431 squamous cervical carcinoma two-dimensional (2D) cultured cells prompted us to evaluate the in vitro antitumor activity of compounds 1–6 on three-dimensional (3D) cell cultures. As opposed to 2D monolayer cultures, cells growing in 3D culture systems form spheroids that comprise cells in various stages. […] Such cellular heterogeneity resembles that of in vivo tumors, making 3D cell cultures more predictive than conventional 2D monolayer cultures in screening antitumor drugs.
Spheroid cultures were obtained by seeding 2.5 × 10^3 A431 cancer cells/well in a round bottom non-treated tissue culture 96 well-plate (Greiner Bio-one, Kremsmünster, Austria) in phenol red free RPMI-1640 medium (Sigma Chemical Co.) containing 10% fetal calf serum (FCS) and supplemented with 20% methyl cellulose stock solution.
An APH modified assay was used for determining cell viability in 3D spheroids, as previously described. IC50 values were calculated with a four parameter logistic (4-PL) model.

In the next data set the test system is A431 cells. Put plainly: Cellular accumulation of Pt (GF-AAS). Particulars: 24 h, 0.5 μM. It is filed as cell-based, human. How it is done: It is clearly recognized that the antitumor activity of platinum-based anticancer drugs depends on the ability of compounds to accumulate into cancer cells and to bind to nuclear DNA, thus inducing transcription inhibition and cell death. Therefore, we investigated the cellular uptake as well as the DNA binding ability of 1–6 in human A431cervical cancer cells. Cells were treated for 24 h with 0.5 μM of 1–6 or CDDP and the total cellular and DNA-bound platinum contents were quantified using GF–AAS analysis. The results, expressed as ng of metal per 10^6 cells, in the case of cellular uptake (A) and as pg of metal per μg of DNA, in the case of DNA-bound platinum (B) are summarized in Figure 9.
A431 cells (2·10^6) were seeded in 75 cm^2 flasks in growth medium (20 mL). After 24 h, the medium was replaced and the cells incubated for 24 h in the presence of the tested complexes.
Cells monolayers were washed twice with cold phosphate-buffered saline (PBS), harvested, and counted. Samples were subjected to three freeze–thaw cycles at −80 °C, and then vigorously vortexed. The samples were treated with highly pure nitric acid (1 mL; Pt ≤ 0.01 mg kg^−1, Trace-SELECT Ultra, Sigma Chemical Co.) and transferred into a microwave Teflon vessel. Subsequently, samples were submitted to standard mineralization procedures. Samples were analyzed for platinum by using a Varian AA Duo graphite furnace atomic absorption spectrometer (Varian, Palo Alto, CA; USA) at a wavelength of […]. The calibration curve was obtained using known concentrations of standard solutions purchased from Sigma Chemical Co.

With `NC1CC=CCC1N.O=C1[O][Pt]([OH])([Cl])[O]C1=O` (racemic) [Complex 6, cis,trans,cis-[Pt(OXA)(OH)Cl(DACHEX)]], the “Cathodic reduction potential Ep^c” value in data set [1] is listed as −0.48 V. For the same compound, the IC50 in data set [2] is 1870 ± 400 nM; in data set [3], 1310 ± 700 nM; in data set [4], 1670 ± 400 nM; in data set [5], 660 ± 20 nM; in data set [6] it was 5.25 ± 1.2 µM; in data set [7], 30.2 ± 3.8 µM. Moreover, the “cellular uptake (cellular internalization of Pt), in words” value (shortened to “cellular uptake”) with A431 cells is listed as “the worst in crossing the cell plasmalemma”.
Turning to `CC(=O)[O][Pt]1([Cl])[O]C(=O)C(=O)[O]1.NC1CC=CCC1N` (racemic) [Complex 5, cis,trans,cis-[Pt(OXA)(AcO)Cl(DACHEX)]], the “Cathodic reduction potential Ep^c” value in data set [1] is reported as −0.82 V. Further, the IC50 amounted to 930 ± 300 nM in data set [2]; 1510 ± 600 nM in data set [3]; 1970 ± 400 nM in data set [4]; 250 ± 50 nM in data set [5]; 3.58 ± 1.4 µM in data set [6]; 26.4 ± 5.5 µM in data set [7]. The “cellular uptake” value in the data set with A431 cells was “the worst in crossing the cell plasmalemma”.
As for `NC1CC=CCC1N.O=C([O-])C(=O)[O-].O=C([O-])c1ccccc1.O=C([O-])c1ccccc1.[Pt+4]` (mixture of isomers) [Complex 3, cis,trans,cis-[Pt(OXA)(BzO)2(DACHEX)]], the “Cathodic reduction potential Ep^c” value in data set [1] is −0.99 V. For the same compound, the IC50 is 140 ± 30 nM in data set [2]; 160 ± 70 nM in data set [3]; 410 ± 100 nM in data set [4]; 70 ± 20 nM in data set [5]; 0.54 ± 0.3 µM in data set [6]; 1.8 ± 0.4 µM in data set [7]. Also, in data set [7], the “efficacy in decreasing cancer spheroid viability, times higher than CDDP” value is “about 32”. Besides, in data set [7], the “efficacy in decreasing cancer spheroid viability, times higher than OXP” value is reported as around 20. In addition, in the data set on A431 cells, the “cellular uptake” value was “the most effective in entering cancer cells”.

The record behind these values is PMC7177638 (International Journal of Molecular Sciences, 2020).
